Results published in patent US20170183306A1, “CYCLIC COMPOUNDS HAVING A 1,3 DIAMINO-FUNCTIONALITY FOR USE IN THE TREATMENT OF HIV INFECTION” (Universite Paris Descartes, priority 2014, published 2017).
Where two headings read alike, the source gives them in different places.

What was measured:
Type in all cases: cell-based
[1] = system: wild type NL4-3 virus (HIV-1) in HeLa-p4 cells; experiment: HeLa-p4 single-cycle HIV-1 infectivity, beta-galactosidase CPRG test; settings: 48 hours after infection, control = NL4-3 virus alone; for activity at 50 µM / activity at 100 µM / activity at 200 µM: Human immunodeficiency virus 1, NL43, HeLaP4; for activity at 50 µM: read-out: Hela-p4 CPRG 50 μM; for activity at 100 µM: read-out: Hela-p4 CPRG 100 μM
Method: (§1) HeLa-p4 cells are HeLa CD4 LTR-LacZ wherein LacZ expression is induced by the trans-activating protein Tat of HIV, making possible the precise quantification of HIV-1 infectivity from a single replication cycle. HeLa-CD4 cells growing exponentially at a density of 1×10^4/mL were placed in 96-well plates and infected the following day with 1 ng of HIV p24 antigen in the presence of different concentrations of compounds. The titles for a single cycle of the viruses were determined 48 hours after infection by quantifying the beta-galactosidase activity in lysates P4 by colorimetric test (CPRG, Promega) based on the cleavage of chlorophenol red-beta-D-galactopyranoside (CPRG) by beta-galactosidase. A cell viability assay measuring the absorbance at […] using the yellow tetrazolium reagent MTS [[…]] (Promega) was carried out.
(§2) For the helap4 cells experiments, the efficacy of the compounds is determined in comparison with control cells containing wild type NL4-3 virus alone (i.e. without any added compound) and is expressed as percentage of control. Then, the viral replication was increased for several compounds at the 50 and 100 μM concentrations with an absence of cytotoxic effects at the same concentrations (MTS test) (table 1).

[2] = system: HeLa-p4 cells; experiment: Cell viability assay (MTS) on HeLa-p4 cells
Method: as §1, §2

[3] = system: J-Lat cells; experiment: J-Lat cells, percentage of GFP-positive cells by cytometry; settings: 24 h, compound alone
Method: The J-Lat were grown in RPMI 1640 medium (Gibco-BRL) supplemented with 10% fetal bovine serum, 50 U/ml of penicillin, […] of streptomycin at 37 uC in a humidified 95% air/5% CO2 atmosphere. The cells were plated at 5.105 cells in a 96 well-plate. TNF ? was purchased from Immunosource. SAHA (suberoylanilide hydroxamic acid), prostratin (12-deoxyphorbol-13-acetate) and vorinostat were obtained from Sigma-Aldrich. The J-Lat cells were treated for 24 h with the different compounds alone. The cells were washed twice in PBS, re-suspended in PBS containing 4% paraformaldehyde and fixed for 30 min. Cells were next washed and re-suspended in PBS. The percentage of GFP-positive cells was measured with a LSRFortessa cytometer (Becton-Dickinson) using FACSDiva Version 6.1.3 according to the manufacturer's instructions.
The results for the J-Lat cells experiments are expressed as a percentage of the living fluorescent cells. In this model, some slight increase of viral production measured by fluorescence are quantified (table 1).

Row | Compound | activity at 50 µM ([1]; 50 μM) [%] | activity at 100 µM ([1]; 100 μM) [%] | Hela-p4 MTS 50 μM ([2]; 50 μM, cell viability) | Hela-p4 MTS 100 μM ([2]; 100 μM, cell viability) | J-lat 50 μM [3] | activity at 200 µM [1] [%] | Hela-p4 MTS 200 μM ([2]; cell viability) | J-lat 100 μM [3] | Hela-p4 CPRG 50 μM ([1]; 50 μM) | Hela-p4 CPRG 100 μM ([1]; 100 μM) | Hela-p4 MTS 50 μM [2] | Hela-p4 MTS 100 μM [2]
1 | CC(C)(C)OC(=O)N[C@@H]1C[C@H](NC(=O)OC(C)(C)C)CN(Cc2ccc(N3CCCC3)cc2)C1 [ECO02-059-C, di-tert-butyl (1-(4-(pyrrolidin-1-yl)benzyl)piperidine-3,5-diyl)dicarbamate] | 198 | 177 | 95 | 67 | 0.5 percentage of the living fluorescent cells | – | – | – | – | – | – | –
2 | COc1cccc(CCN2C[C@H](N)C[C@H](N)C2)c1 [ECO01-026-C2, 1-(3-methoxyphenethyl)piperidine-3,5-diamine] | 116 | 169 | 106 | 98 | 3.3 percentage of the living fluorescent cells | 234 | 72 | – | – | – | – | –
3 | CC(C)N1C[C@H](N)C[C@H](N)C1 [AB542, 1-isopropylpiperidine-3,5-diamine] | 113 | 106 | 100 | 99 | 0.1 percentage of the living fluorescent cells | – | – | 0.7 percentage of the living fluorescent cells | – | – | – | –
4 | COC(=O)[C@H](Cc1ccccc1)N1C[C@H](N)C[C@H](N)C1 [AB-81, (S)-methyl 2-((3S,5R)-3,5-diaminopiperidin-1-yl)-3-phenylpropanoate] | 151 | 147 | 96 | 94 | 0.1 percentage of the living fluorescent cells | – | – | 0.8 percentage of the living fluorescent cells | – | – | – | –
5 | COc1ccc(CCN2C[C@H](N3C[C@H](N)C[C@H](N)C3)C[C@H](N3C[C@H](N)C[C@H](N)C3)C2)cc1OC [AB-103, (3S,3′R,3″S,5R,5′S,5″R)-1′-(3,4-dimethoxyphenethyl)-[1,3′:5′,1″-terpiperidine]-3,3″,5,5″-tetraamine] | 125 | 143 | 83 | 84 | 0.2 percentage of the living fluorescent cells | – | – | 0.4 percentage of the living fluorescent cells | – | – | – | –
6 | COc1ccc(-c2ccc(N3C[C@H](N)C[C@H](N)C3)cc2)cc1 [ECO02-029-C, 1-(4′-methoxy-[1,1′-biphenyl]-4-yl)piperidine-3,5-diamine4-(2-((3S,5R)-3,5-diaminopiperidin-1-yl)ethyl)phenol] | 29 | 30 | 25 | 25 | 2.4 percentage of the living fluorescent cells | – | – | – | – | – | – | –
7 | N[C@H]1CC(OCc2cn(CC(=O)c3cc4ccc3CCc3ccc(cc3)CC4)nn2)[C@@H](N)C1 (stereo partly drawn) [RA 20] | 167 | 188 | 108 | 97 | 0.1 percentage of the living fluorescent cells | – | – | 1.1 percentage of the living fluorescent cells | – | – | – | –
8 | CC(C)(C)OC(=O)N[C@@H]1C[C@H](NC(=O)OC(C)(C)C)CN(S(=O)(=O)c2ccccc2)C1 [ECO02-081-C, di-tert-butyl (1-(phenylsulfonyl)piperidine-3,5-diyl)dicarbamate] | 196 | 207 | 91 | 69 | 0.8 percentage of the living fluorescent cells | 279 | 77 | – | – | – | – | –
9 | COc1ccccc1CCN1C[C@H](N)C[C@H](N)C1 [ECO01-031-C, 1-(2-methoxyphenethyl)piperidine-3,5-diamine] | 88 | 108 | 88 | 82 | 0.1 percentage of the living fluorescent cells | – | – | 4.8 percentage of the living fluorescent cells | – | – | – | –
10 | N[C@@H]1C[C@H](N)CN(S(=O)(=O)c2ccccc2)C1 [ECO03-001-B, 1-(phenylsulfonyl)piperidine-3,5-diamine] | 118 | 170 | 97 | 104 | 0.6 percentage of the living fluorescent cells | 360 | 109 | – | – | – | – | –
11 | CCc1ccc(C(=O)NC(CCCCN)C(=O)N2C[C@H](N)C[C@H](N)C2)cc1 (stereo partly drawn) [AB289-2, N-(6-amino-1-(3,5-diaminopiperidin-1-yl)-1-oxohexan-2-yl)-4-ethylbenzamide] | 154 | 219 | 113 | 101 | 0.1 percentage of the living fluorescent cells | 248 | 72 | 0.2 percentage of the living fluorescent cells | – | – | – | –
12 | N[C@@H]1C[C@H](N)CN(c2ccc3[nH]ccc3c2)C1 [AB-86, (3S,5R)-1-(1H-indol-5-yl)piperidine-3,5-diamine] | 80 | 66 | 81 | 74 | 0.1 percentage of the living fluorescent cells | – | – | 2.6 percentage of the living fluorescent cells | – | – | – | –
13 | COc1ccc(CCN2C[C@H](N)C[C@H](N)C2)cc1OC [AB-77, (3S,5R)-1-(3,4-dimethoxyphenethyl)piperidine-3,5-diamine] | 165 | 184 | 93 | 97 | 0.1 percentage of the living fluorescent cells | 310 | 69 | 0.8 percentage of the living fluorescent cells | – | – | – | –
14 | N[C@@H]1C[C@H](N)CN(c2ccc3c(c2)OCO3)C1 [ECO01-042-C] | 146 | 104 | 85 | 60 | 0.2 percentage of the living fluorescent cells | – | – | 0.4 percentage of the living fluorescent cells | – | – | – | –
15 | Cc1ccccc1CCN1C[C@H](N)C[C@H](N)C1 [ECO01-028-C, 1-(2-methylphenethyl)piperidine-3,5-diamine] | 108 | 113 | 91 | 94 | 0.1 percentage of the living fluorescent cells | – | – | 0 percentage of the living fluorescent cells | – | – | – | –
16 | 1-(3,5-diaminopiperidin-1-yl)-2-(3-methoxyphenyl)ethanone [ECO02-031-C] | – | – | – | – | 0.2 percentage of the living fluorescent cells | – | – | 0.1 percentage of the living fluorescent cells | 146 percentage of control | 222 percentage of control | 116 | 110
17 | COc1cccc(CCN2C[C@H](NC(=O)OC(C)(C)C)C[C@H](NC(=O)OC(C)(C)C)C2)c1 [ECO03-03-C, di-tert-butyl (1-(3-methoxyphenethyl)piperidine-3,5-diyl)dicarbamate] | 148 | 341 | 105 | 104 | 0.4 percentage of the living fluorescent cells | 440 | 104 | – | – | – | – | –
